Consider 5 molecules from patent publication US6903107B1, “Serine protease inhibitor” (Akzo Nobel N.V., priority 1998, dated 2005).

This assay has as its target T1, Human thrombin (Homo sapiens, UniProt P00734).
T1 construct: purchased Centraal Laboratorium voor Bloedtransfusie, Amsterdam, The Netherlands
The assay can be described thus: Anti-thrombin assay (hydrolysis of chromogenic substrate S-2238). It counts as biochemical. The following applies: chromogenic substrate S-2238, TNP buffer, pH 7.4, 37° C.; read-out: Antithrombin activity: IC50. The method, then:
Thrombin (Factor IIa) is a factor in the coagulation cascade. The anti-thrombin activity of compounds of the present invention was assessed by measuring spectrophotometrically the rate of hydrolysis of the chromogenic substrate s-2238 exterted by thrombin. This assay for anti-thrombin activity in a buffer system was used to assess the IC50-value of a test compound.
Test medium: Tromethamine-NaCl-polyethylene glycol 6000 (TNP) buffer
Reference compound: 12581 (Kabi)
Vehicle: TNP buffer. Solubilisation can be assisted with dimethylsulphoxide, methanol, ethanol, acetonitrile or tert.-butyl alcohol which are without adverse effects in concentrations up to 2.5% in the final reaction mixture.
Technique Reagents* • 1. Tromethamine-NaCl (TN) buffer Composition of the buffer:
• The pH of the solution is adjusted to 7.4 at 37° C. with HCl (10 mmol.l^−1). • 2. TNP buffer Polyethylene glycol 6000 is dissolved in TN buffer to give a concentration of 3 g.l^−1. • 3. S-2238 solution One vial S-2238 (25 mg; Kabi Diagnostica, Sweden) is dissolved in 20 ml TN buffer to give a concentration of 1.25 mg.ml^−1 (2 mmol.l^−1). • 4. Thrombin solution Human thrombin (16 000 nKat.vial^−1; Centraal Laboratorium voor Bloedtransfusie, Amsterdam, The Netherlands) is dissolved in TNP buffer to give a stock solution of 835 nKat.ml^−1. Immediately before use this solution is diluted with TNP buffer to give a concentration of 3.34 nKat.ml^−1. • All ingredients used are of analytical grade • For aqueous solutions ultrapure water (Milli-Q quality) is used.
Preparation of test and reference compound solutions
The test and reference compounds are dissolved in Milli-Q water to give stock concentrations of 10^−2 mol.l^−1. Each concentration is stepwise diluted with the vehicle to give concentrations of 10^−3, 10^−4 and 10^−5 mol.l^−1. The dilutions, including the stock solution, are used in the assay (final concentrations in the reaction mixture: 3·10^−3; 10^−3; 3·10^−4; 10^−4; 3.10^−5; 10^−5; 3.10^−6 and 10^−6 mol.l^−1, respectively).
At room temperature 0.075 ml and 0.025 ml test compound or reference compound solutions or vehicle are alternately pipetted into the wells of a microtiter plate and these solutions are diluted with 0.115 ml and […] TNP buffer, respectively. An aliquot of 0.030 ml S-2238 solution is added to each well and the plate is pre-heated and pre-incubated with shaking in an incubator (Amersham) for 10 min. at 37° C. Following pre-incubation the hydrolysis of S-2238 is started by addition of 0.030 ml thrombin solution to each well. The plate is incubated (with shaking for 30 s) at 37° C. Starting after 1 min of incubation, the absorbance of each sample at 405 nm is measured every 2 min. for a period of 90 min. using a kinetic microtiter plate reader (Twinreader plus, Flow Laboratories). All data are collected in an IBM personal computer using LOTUS-MEASURE. For each compound concentration (expressed in mol.l^−1 reaction mixture) and for the blank the absorbance is plotted versus the reaction time in min.
Evaluation of responses: For each final concentration the maximum absorbance was calculated from the assay plot. The IC50-value (final concentration, expressed in μmol.l^−1, causing 50% inhibition of the maximum absorbance of the blank) was calculated using the logit transformation analysis according to Hafner et al. (Arzneim.-Forsch./Drug Res. 1977; 27(II): 1871-3).
As a reminder, the IC50 is the concentration that inhibits the measured activity by half. Consider “1-(N-cyclooctyl-γ-tert-butyl-L-glutamyl)-2-(2-(1-amino-isoquinolin-6-oxy)-ethyl)-piperidine [Example 8]”, for which the IC50 is 610 nM.
For `CC1(C)C2CCC1(CS(=O)(=O)NC(CC1CCCCC1)C(=O)N1CCCCC1CCOc1ccc3c(N)nccc3c1)C(=O)C2` [Example 1, (2S)-1-(N-(−)-camphorsulphonyl-D-cyclohexylalaninyl)-2-(2-(1-amino-isoquinolin-6-oxy)-eythyl)-piperidine], the IC50 was determined as 410 nM.
The same measure for `Nc1nccc2cc(OCCC3CCCCN3C(=O)C(CC3CCCCC3)NCC(=O)NC3CCCC3)ccc12` [Example 9, 1-(N-cyclopentylaminocarbonylmethyl-D-cyclohexylalaninyl)-2-(2-(1-amino-isoquinolin-6-oxy)-ethyl)-piperidine]: 320 nM; for `Nc1nccc2cc(OCCC3CCCCN3C(=O)C(CC3CCCCC3)NCC(=O)Nc3ccccc3)ccc12` [Example 10, 1-(N-anilinocarbonylmethyl-D-cyclohexylalaninyl)-2-(2-(1-amino-isoquinolin-6-oxy)-ethyl)-piperidine]: 1350 nM.
The same measure for `Nc1nccc2cc(OCCC3CCCCN3C(=O)C(CC3CCCCC3)NC3CCCCC3)ccc12` [Example 11, 1-(N-cyclohexyl-D-cyclohexylalanine)-2-(2-(1-amino-isoquinolin-6-oxy)-ethyl)-piperidine]: 500 nM.
